According to DBAASP:
Converted amounts (≈) assume the structure as drawn. “And” between values parts separate entries of the source, which are not always exact repeats. Equal entries are not always repeated.

Key:
Experiment in all cases: ≥ marks a high value that may be exact or a test limit, other limits are often not marked, values filed in µg/mL are converted to µM
Enterococcus faecalis = tested on: Enterococcus faecalis
Escherichia coli W3110 = tested on: Escherichia coli W3110
[1] = tested on: Pseudomonas aeruginosa PAK
Staphylococcus aureus = tested on: Staphylococcus aureus
[2] = tested on: Streptococcus mutans UA159
[3] = tested on: Streptococcus sanguinis NY101
[4] = tested on: Streptococcus sobrinus ATCC 33478
[5] = tested on: Acinetobacter baumannii ATCC 19606
Bacillus megaterium = tested on: Bacillus megaterium
[6] = tested on: Candida albicans ATCC 90028
[7] = tested on: Enterococcus faecalis ATCC 29212
[8] = tested on: Escherichia coli ATCC 25922
[9] = tested on: Escherichia coli ATCC 35218
Escherichia coli ML-35p = tested on: Escherichia coli ML-35p
Helicobacter pylori = tested on: Helicobacter pylori
[10] = tested on: Klebsiella pneumoniae ATCC 13883
[11] = tested on: Legionella feeleii ATCC 35072
[12] = tested on: Legionella longbeachae ATCC 33484
[13] = tested on: Legionella pneumophila ATCC 33155
[14] = tested on: Legionella pneumophila Paris
Listeria ivanovii = tested on: Listeria ivanovii
[15] = tested on: Pseudomonas aeruginosa ATCC 27853
Saccharomyces cerevisiae = tested on: Saccharomyces cerevisiae
[16] = tested on: Salmonella enterica subsp. enterica serovar Enteritidis
[17] = tested on: Staphylococcus aureus ATCC 25923
[18] = tested on: Staphylococcus aureus ATCC 43300
[19] = tested on: Staphylococcus aureus ATCC BAA-44
[20] = tested on: Staphylococcus aureus ST1065
[21] = tested on: Streptococcus pyogenes ATCC 19615
[22] = tested on: Acinetobacter baumannii ATCC 17978
[23] = tested on: Acinetobacter baumannii AYE
Escherichia coli LEC001 = tested on: Escherichia coli LEC001
[24] = tested on: Escherichia coli NCTC 12923
Escherichia coli = tested on: Escherichia coli
Klebsiella pneumoniae M6 = tested on: Klebsiella pneumoniae M6
[25] = tested on: Klebsiella pneumoniae NCTC 13368
[26] = tested on: Pseudomonas aeruginosa NCTC 13437
[27] = tested on: Pseudomonas aeruginosa PAO1
[28] = tested on: Staphylococcus aureus ATCC 9144
[29] = tested on: Staphylococcus aureus NCTC 13616
[30] = tested on: Staphylococcus aureus USA 300
[31] = tested on: Corynebacterium glutamicum ATCC 13032
Escherichia coli HB101 = tested on: Escherichia coli HB101
[32] = tested on: Vibrio anguillarum FT1801

Which MIC (Enterococcus faecalis) does the source give for `CC[C@H](C)[C@H](NC(=O)[C@H](Cc1ccccc1)NC(=O)[C@H](Cc1cnc[nH]1)NC(=O)[C@H](CCCCN)NC(=O)[C@@H](NC(=O)[C@H](Cc1ccccc1)NC(=O)[C@@H](NC(=O)[C@H](C)NC(=O)[C@H](CO)NC(=O)[C@H](Cc1ccccc1)NC(=O)[C@H](Cc1cnc[nH]1)NC(=O)[C@H](CC(C)C)NC(=O)[C@H](Cc1cnc[nH]1)NC(=O)[C@H](Cc1ccccc1)NC(=O)[C@H](Cc1cnc[nH]1)NC(=O)[C@@H](N)Cc1ccccc1)[C@@H](C)O)[C@@H](C)CC)C(=O)N[C@@H](Cc1cnc[nH]1)C(=O)N[C@@H](CCCN=C(N)N)C(=O)N[C@@H](Cc1ccccc1)C(N)=O` [FHFHLHFSATFIKHFIHRF] here?
The MIC was 25.3 µM (≈ 62.5 µg/mL).

And the MIC (Escherichia coli W3110)?
Its MIC is no less than 50.6 µM.

And the MIC [1]?
Its MIC is no less than 50.6 µM.

What about the MIC (Staphylococcus aureus) of the same compound?
The MIC was 50.6 µM (≈ 125 µg/mL).

What about the MIC [2] of the same compound?
The MIC was 6.48 µM (≈ 16 µg/mL).

And the MIC [3]?
Its MIC is 25.3 µM (≈ 62.5 µg/mL).

And the MIC [4]?
Its MIC is no less than 101 µM.

Which MIC [5] does the source give for `CC[C@H](C)[C@H](NC(=O)CNC(=O)[C@H](CO)NC(=O)[C@H](CC(C)C)NC(=O)[C@@H](N)Cc1ccccc1)C(=O)N[C@H](C(=O)NCC(=O)N[C@@H](CCSC)C(=O)N[C@@H](CC(C)C)C(=O)NCC(=O)N[C@@H](CCCCN)C(=O)N[C@@H](CC(C)C)C(=O)N[C@@H](Cc1ccccc1)C(=O)O)C(C)C` [FLSGIVGMLGKLF] here?
The MIC was 6 µM (≈ 8.29 µg/mL).

And the MIC (Bacillus megaterium)?
The MIC was 2 µM (≈ 2.76 µg/mL).

What about the MIC [6] of the same compound?
Its MIC is 16 µM and 25 µM.

And the MIC [7]?
Its MIC is 11 µM (≈ 15.1 µg/mL).

What about the MIC [8] of the same compound?
The MIC was 10 µM (≈ 13.8 µg/mL).

And the MIC [9]?
The MIC was 10 µM (≈ 13.8 µg/mL).

What about the MIC (Escherichia coli ML-35p) of the same compound?
Its MIC is 12 µM (≈ 16.6 µg/mL).

What about the MIC (Helicobacter pylori) of the same compound?
The MIC was 17.7 µM (≈ 24.4 µg/mL).

And the MIC [10]?
Its MIC is 12 µM (≈ 16.6 µg/mL).

What about the MIC [11] of the same compound?
Its MIC is 1.56 µM (≈ 2.16 µg/mL).

And the MIC [12]?
Its MIC is 1.56 µM (≈ 2.16 µg/mL).

What about the MIC [13] of the same compound?
Its MIC is 3.12 µM (≈ 4.31 µg/mL).

And the MIC [14]?
Its MIC is 1.56 µM (≈ 2.16 µg/mL).

What about the MIC (Listeria ivanovii) of the same compound?
Its MIC is 6 µM (≈ 8.29 µg/mL).

What about the MIC [15] of the same compound?
Its MIC is 31 µM and 50 µM.

And the MIC (Saccharomyces cerevisiae)?
The MIC was 8 µM and 12 µM.

And the MIC [16]?
The MIC was 25 µM (≈ 34.5 µg/mL).

What about the MIC [17] of the same compound?
Its MIC is 3 µM (≈ 4.15 µg/mL).

What about the MIC [18] of the same compound?
The MIC was 6 µM (≈ 8.29 µg/mL).

What about the MIC [19] of the same compound?
Its MIC is 6 µM (≈ 8.29 µg/mL).

And the MIC [20]?
The MIC was 6 µM (≈ 8.29 µg/mL).

And the MIC [21]?
The MIC was 6 µM (≈ 8.29 µg/mL).

With `CC[C@H](C)[C@H](NC(=O)[C@H](CCCCN)NC(=O)[C@H](CC(C)C)NC(=O)[C@H](C)NC(=O)[C@H](C)NC(=O)[C@H](CCCCN)NC(=O)[C@H](CC(C)C)NC(=O)[C@H](C)NC(=O)[C@H](CCCCN)NC(=O)CNC(=O)[C@H](CC(C)C)NC(=O)[C@H](Cc1ccccc1)NC(=O)[C@H](CO)NC(=O)CNC(=O)[C@H](Cc1ccccc1)NC(=O)CN)C(=O)NCC(=O)N[C@@H](C)C(=O)N[C@@H](CC(N)=O)C(=O)N[C@H](C(=O)N[C@@H](CC(C)C)C(=O)NCC(=O)NCC(=O)N[C@@H](C)C(=O)N1CCC[C@H]1C(=O)N[C@@H](CCC(N)=O)C(=O)N[C@@H](CCC(N)=O)C(=O)O)C(C)C` [GFGSFLGKALKAALKIGANVLGGAPQQ] as the compound, how does the MIC [22] read?
Its MIC is 1.53 µM (≈ 4 µg/mL).

What about the MIC [23] of the same compound?
Its MIC is 3.06 µM (≈ 8 µg/mL).

What about the MIC (Escherichia coli LEC001) of the same compound?
The MIC was 3.06 µM (≈ 8 µg/mL).

What about the MIC [24] of the same compound?
Its MIC is 3.06 µM (≈ 8 µg/mL).

What about the MIC (Escherichia coli) of the same compound?
Its MIC is 12.5 µM (≈ 32.7 µg/mL).

What about the MIC (Klebsiella pneumoniae M6) of the same compound?
The MIC was 12.2 µM (≈ 32 µg/mL).

What about the MIC [25] of the same compound?
The MIC was 12.2 µM (≈ 32 µg/mL).

And the MIC [26]?
The MIC was 24.5 µM (≈ 64 µg/mL).

And the MIC [27]?
Its MIC is greater than 49 µM.

And the MIC [28]?
Its MIC is 1.53 µM (≈ 4 µg/mL).

And the MIC [29]?
Its MIC is 1.53 µM (≈ 4 µg/mL).

What about the MIC [30] of the same compound?
Its MIC is 3.06 µM (≈ 8 µg/mL).

And the MIC (Staphylococcus aureus)?
Its MIC is 6 µM (≈ 15.7 µg/mL).

For `CC[C@H](C)[C@H](NC(=O)[C@@H]1CCCN1C(=O)[C@H](CCCCN)NC(=O)[C@@H]1CCCN1C(=O)[C@H](CCCN=C(N)N)NC(=O)CNC(=O)[C@@H]1CCCN1C(=O)[C@H](Cc1ccccc1)NC(=O)[C@@H]1CCCN1C(=O)[C@H](CCCN=C(N)N)NC(=O)[C@@H]1CCCN1C(=O)[C@H](CCCN=C(N)N)NC(=O)CNC(=O)[C@@H]1CCCN1C(=O)[C@H](CO)NC(=O)[C@@H]1CCCN1C(=O)[C@H](Cc1c[nH]c2ccccc12)NC(=O)[C@H](CCCN=C(N)N)NC(=O)[C@@H](N)CO)C(=O)N[C@@H](Cc1ccccc1)C(=O)N[C@@H](CCCN=C(N)N)C(=O)N1CCC[C@H]1C(=O)N[C@@H](CCCN=C(N)N)C(=O)N1CCC[C@H]1C(=O)N[C@H]1CSSC[C@@H](C(=O)N[C@@H](CC(=O)O)C(=O)N[C@@H](CCCN=C(N)N)C(=O)N[C@@H](Cc2c[nH]c3ccccc23)C(=O)O)NC(=O)[C@@H]2CCCN2C(=O)[C@@H]2CSSC[C@H](NC(=O)[C@H](CC(N)=O)NC1=O)C(=O)N[C@@H](Cc1ccc(O)cc1)C(=O)N[C@@H](C)C(=O)N1CCC[C@H]1C(=O)N1CCC[C@H]1C(=O)N2` [SRWPSPGRPRPFPGRPKPIFRPRPCNCYAPPCPCDRW], which MIC [31] is on record?
The MIC was 0.8 µM (≈ 3.48 µg/mL).

What about the MIC [8] of the same compound?
Its MIC is 12.5 µM (≈ 54.3 µg/mL).

And the MIC (Escherichia coli HB101)?
The MIC was 6.25 µM (≈ 27.2 µg/mL).

And the MIC [15]?
The MIC was 6.3 µM (≈ 27.4 µg/mL).

What about the MIC [28] of the same compound?
The MIC was no less than 50 µM.

And the MIC [32]?
The MIC was 6.3 µM (≈ 27.4 µg/mL).
